From paper PMC6614494, “Molecular and Biochemical Characterization of a Bimodular Xylanase From Marinifilaceae Bacterium Strain SPP2” (Frontiers in Microbiology, 2019)

Target: T1, XynSPP2 (Labilibaculum antarcticum, UniProt A0A1Y1CHM8)
T1 construct: gene ALGA_1465; residues 25-450, signal peptide (24 residues) removed, Fn3 + GH10 domains; 34-residue N-terminal pET-28a tag kept; E. coli BL21(DE3)
Experiment: TLC of hydrolysis products
Type: biochemical
Settings: 20 uM substrate, citrate-phosphate pH 6.5

T1 sequence (A0A1Y1CHM8 entry or part of it): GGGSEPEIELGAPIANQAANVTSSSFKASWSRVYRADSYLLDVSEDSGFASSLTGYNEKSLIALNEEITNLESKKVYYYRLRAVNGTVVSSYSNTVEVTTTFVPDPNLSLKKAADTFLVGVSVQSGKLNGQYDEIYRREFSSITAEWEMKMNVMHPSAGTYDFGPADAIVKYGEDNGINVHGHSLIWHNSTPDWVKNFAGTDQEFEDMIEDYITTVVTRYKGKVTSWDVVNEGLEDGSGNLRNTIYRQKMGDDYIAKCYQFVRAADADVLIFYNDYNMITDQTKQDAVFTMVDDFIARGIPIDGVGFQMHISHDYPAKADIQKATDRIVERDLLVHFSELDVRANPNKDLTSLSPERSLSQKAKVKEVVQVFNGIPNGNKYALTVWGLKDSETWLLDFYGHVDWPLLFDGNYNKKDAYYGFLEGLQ

Question: `OC1OC[C@@H](O[C@@H]2OC[C@@H](O[C@@H]3OC[C@@H](O[C@@H]4OC[C@@H](O)[C@H](O)[C@H]4O)[C@H](O)[C@H]3O)[C@H](O)[C@H]2O)[C@H](O)[C@H]1O` (some centres unmarked) [X4, xylotetraose] was tested. Which “TLC of hydrolysis products” value did it give?
Answer: XynSPP2 hydrolyzed xylotetraose to xylotriose (major) and xylobiose

Question: `OC1OC[C@@H](O[C@@H]2OC[C@@H](O[C@@H]3OC[C@@H](O[C@@H]4OC[C@@H](O[C@@H]5OC[C@@H](O)[C@H](O)[C@H]5O)[C@H](O)[C@H]4O)[C@H](O)[C@H]3O)[C@H](O)[C@H]2O)[C@H](O)[C@H]1O` (some centres unmarked) [X5, xylopentaose] was tested. Which “TLC of hydrolysis products” value did it give?
Answer: Degradations of xylopentaose and xylohexaose by XynSPP2 were largely similar
